From patent US20240124454A1, “TRICYCLIC COMPOUND AND USE THEREOF” (NANJING ZAIMING PHARMACEUTICAL CO., LTD., priority 2020, published 2024)
pIC50: −log10 of the molar value. Read-outs that look alike come from different tables or passages of the source.

Key:
MAT2A = MAT2A (Homo sapiens (Human), UniProt P31153); test: MAT2A biochemical test (inorganic phosphate colorimetric, PiColorLock); details: read-out: MAT2A inhibitory Activity IC50
Method in brief: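 Compounds tested from 10 μM top concentration in 3-fold dilutions, preincubated 120 min at room temperature with MAT2A ([…] final) in Tris/KCl/MgCl2/EDTA/BSA buffer. Reaction started with […] L-methionine and 400 μM ATP, run 90 min at room temperature; phosphate read by PiColorLock after 30 min. IC50 fitted from % inhibition versus no-enzyme and DMSO controls.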

HCT116 MTAP^−/− cells [1] = test: Determination of intracellular SAM level by LC-MS/MS; format: cell-based; details: Homo sapiens, HCT-116, 6 h, read-out: SAM production inhibitory activity IC50
Experimental: Test Example 2. Determination of Intracellular SAM Level
The brief introduction of the test principle: After the test MAT2A inhibitor was incubated with cancer cells for a period of time, the cells were lysed with a stop reagent to quench the activity of the MAT2A enzyme. The catalytic product SAM of MAT2A in the cell lysate was quantitatively determined by LC-MS/MS, and thus the activity of MAT2A in the cell was reflected.
(§1) Reference: The experiment referred to the method disclosed in patent WO2018045071.
Material and cell: HCT116 MTAP^−/− cells were purchased from KYinno; fetal bovine serum, McCoy's 5a culture medium, and penicillin-streptomycin were purchased from Gibco Company (U.S.), and 96-well plates were purchased from Corning Company (U.S.).
Cell culture: HCT116 MTAP^−/− cells were cultured with a McCoy's 5a medium containing 10% fetal bovine serum+1% penicillin-streptomycin at 37° C. with 5% CO2. Cells at logarithmic growth phase were available for the experiment.
LC-MS/MS detection: The effect of the compound on the SAM production level in HCT116 MTAP^−/− cell strains was detected by LC-MS/MS. The cells were adjusted to a concentration of 50000 cells per well, seeded on a 96-well plate, and incubated overnight at 37° C. with 5% CO2. In the experimental group, the test compound was dissolved in DMSO, diluted sequentially with DMSO and a culture medium, and transferred to a cell plate at a final concentration of 10 μM, 3-fold dilution. The cells were continuously cultured at 37° C. with 5% CO2 for 6 h. The supernatant was pipetted off. After the cells were washed once with PBS, glacial acetic acid was added to lyse the cells. After the lysate was processed, the SAM concentration was determined by LC-MS/MS analysis.
A negative control group and a positive control group were respectively used as Bottom and Top. The negative control group was added with 10 μM positive compound (compound 072 of Example 51 of patent WO2021139775A1) in the same volume, and other operations were consistent with those of the experimental group. The positive control group was not added with the test compound, only added with DMSO in the same volume, and other operations were consistent with those of the experimental group.
(§2) The % Compound inhibition was calculated and fitted to give the IC50 of the compound.
% Compound inhibition=1−100%×(Signal−Bottom)/(Top−Bottom)
(§3) Signal referred to the signal value of the experimental group, Bottom referred to the average signal value of the negative control group, and Top referred to the average signal value of the positive control group.

HCT116 MTAP^−/− cells [2] = test: Cell proliferation inhibition test (Cell-Titer Glo), HCT116 MTAP−/−; format: cell-based, human; details: Homo sapiens, HCT-116, 144 h, 6 days, read-out: HCT116 MTAP−/− Antiproliferative activity IC50
Experimental: (§4) Test Example 3. Cell Proliferation Inhibition Test of Human Colon Cancer HCT116 WT Cells and HCT116 MTAP-1-Cells
(§5) The brief introduction of the test principle: After the test MAT2A inhibitor was incubated with cancer cells for a period of time, the effect of the test compound on cell proliferation was measured using a cell proliferation count method based on the ATP content.
as §1
(§6) Material and cell: HCT116 WT cells and HCT116 MTAP^−/− cells were purchased from KYinno; fetal bovine serum, McCoy's 5a culture medium, and penicillin-streptomycin were purchased from Gibco Company (U.S.), 96-well plates were purchased from Corning Company (U.S.), and the Cell-Titer Glo reagent was purchased from Promega Company (U.S.).
(§7) Cell culture: HCT116 WT cells and HCT116 MTAP^−/− cells were cultured with a McCoy's 5a medium containing 10% fetal bovine serum+1% penicillin-streptomycin at 37° C. with 5% CO2.
(§8) Cells at logarithmic growth phase were available for the experiment.
(§9) Cell proliferation activity test: The Cell-Titer Glo reagent was used to test the compound for inhibitory activity on proliferation of both HCT116 WT and HCT116 MTAP^−/− cell strains. The cells were adjusted to a concentration of 400 cells per well, seeded on a 96-well plate, and incubated overnight at 37° C. with 5% CO2.
(§10) In the experimental group, the test compound was diluted sequentially with DMSO and a culture medium, and transferred to a cell plate at a final concentration of 10 μM, 3-fold dilution. The cells were continuously cultured at 37° C. with 5% CO2 for 6 days. The Cell-Titer Glo reagent was added and the cell activity was measured.
(§11) A negative control group and a positive control group were respectively used as Bottom and Top. The negative control group was not added with cells, only added with the culture medium in the same volume, and other operations were consistent with those of the experimental group. The positive control group was not added with the test compound, only added with DMSO in the same volume, and other operations were consistent with those of the experimental group.
as §2
(§12) % Compound inhibition=1-100%×(Signal−Bottom)/(Top−Bottom).
as §3
(§13) HCT116 MTAP^−/− cells are cells not expressing MTAP protein obtained by site-directed knockout of wild type HCT116 (HCT116 WT) cells by gene knockout. Synthetic lethality will occur due to MAT2A inhibition and the deletion of MTAP, thereby causing tumor cell death. The activity and selectivity of the MAT2A inhibitor can be evaluated by testing the antiproliferative activity of the MAT2A inhibitor on human colon cancer HCT116 MTAP^−/− cells and human colon cancer HCT116 WT.

HCT116 WT cells = test: Cell proliferation inhibition test (Cell-Titer Glo), HCT116 WT; format: cell-based, human; details: Homo sapiens, HCT-116, 144 h, 6 days, read-out: HCT116 WT Antiproliferative activity IC50
Experimental: as §4, §5, §1, §6, §7, §8, §9, §10, §11, §2, §12, §3, §13

MAT2A, sequence (P31153 whole entry): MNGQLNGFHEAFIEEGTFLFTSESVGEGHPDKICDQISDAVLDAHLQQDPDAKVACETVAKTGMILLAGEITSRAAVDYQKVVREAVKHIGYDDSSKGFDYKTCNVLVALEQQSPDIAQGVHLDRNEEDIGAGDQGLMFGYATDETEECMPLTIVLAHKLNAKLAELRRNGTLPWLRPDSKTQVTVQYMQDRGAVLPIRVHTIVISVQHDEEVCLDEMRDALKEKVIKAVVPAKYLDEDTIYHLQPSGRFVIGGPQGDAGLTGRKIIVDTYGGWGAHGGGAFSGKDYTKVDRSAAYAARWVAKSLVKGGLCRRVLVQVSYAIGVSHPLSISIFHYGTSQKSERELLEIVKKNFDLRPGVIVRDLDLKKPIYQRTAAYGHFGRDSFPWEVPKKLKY

Row | SMILES | pIC50 (MAT2A; class symbols) | pIC50 (MAT2A; numeric values) | pIC50 (HCT116 MTAP^−/− cells [1]) | pIC50 (HCT116 MTAP^−/− cells [2]) | pIC50 (HCT116 WT cells)
1 | O=c1c2nc[nH]c2c2ccc(C(F)(F)F)nc2n1-c1ccccc1Cl [Compound 1, 5-(2-chlorophenyl)-7-(trifluoromethyl)-1,5-dihydro-4H-imidazo[4,5-c][1,8]naphthyridin-4-one] | > 7.00 | 7.50 | 8.42 | 6.94 | 6.09
2 | Cc1cccc(-n2c(=O)c3ncn(C)c3c3ccc(C(F)(F)F)nc32)c1Cl [Compound 36, 5-(2-chloro-3-methylphenyl)-1-methyl-7-(trifluoromethyl)-1,5-dihydro-4H-imidazo[4,5-c][1,8]naphthyridin-4-one] | > 7.00 | 7.28 | 8.25 | 7.09 | 5.00
3 | Cn1cnc2c(=O)n(-c3cccc(Cl)c3Cl)c3nc(C(F)(F)F)ccc3c21 [Compound 37, 5-(2,3-dichlorophenyl)-1-methyl-7-(trifluoromethyl)-1,5-dihydro-4H-imidazo[4,5-c][1,8]naphthyridin-4-one] | > 7.00 | 7.32 | 8.06 | 6.77 | 5.04

Second part, the molecule after the results:

Row | pIC50 (MAT2A; class symbols) | pIC50 (MAT2A; numeric values) | pIC50 (HCT116 MTAP^−/− cells [1]) | pIC50 (HCT116 MTAP^−/− cells [2]) | pIC50 (HCT116 WT cells) | SMILES
4 | > 7.00 | 7.69 | 8.80 | 7.48 | 6.63 | Cc1ncccc1-n1c(=O)c2ncn(C)c2c2ccc(C(F)(F)F)nc21 (single isomer, unassigned) [Compound 20-P1, 1-methyl-5-(2-methylpyridin-3-yl)-7-(trifluoromethyl)-1,5-dihydro-4H-imidazo[4,5-c][1,8]naphthyridin-4-one]
5 | > 7.00 | 7.16 | 8.13 | 6.28 | 5.32 | Cn1cnc2c(=O)n(-c3ccccc3Cl)c3nc(C(F)(F)F)ccc3c21 [Compound 2, 5-(2-chlorophenyl)-1-methyl-7-(trifluoromethyl)-1,5-dihydro-4H-imidazo[4,5-c][1,8]naphthyridin-4-one]
